Experimental data from the COVID Moonshot data (paper PMC7615835).
Where “and” joins values, the source holds several entries; their conditions need not be identical. Identical values can stand only once.

Target: SARS-CoV-2 Main Protease (SARS-CoV-2) (UniProt P0DTD1)

Structure (SMILES) | IC50
COc1ccc(CNCC2(C(=O)Nc3cncc4ccccc34)CCOc3ccc(Cl)cc32)cc1OCC(N)=O (configuration not stated) | 11.5 µM
O=C(Nc1ccc(N(Cc2ccsc2)C(=O)Cn2nnc3ccccc32)cc1)C1CC1 | 3.99 µM
COc1ccc2cncc(N3CCC4(CN(S(=O)(=O)CC5(C#N)CC5)Cc5ccc(Cl)cc54)C3=O)c2c1 (configuration not stated) | 0.215 µM
C[C@@]1(C(=O)Nc2cncc3c2CCCC3)CNS(=O)(=O)c2ccc(Cl)cc21 (stereo in doubt) | 3.72 µM
O=C(Cc1cc(Cl)cc(Nc2cc(Cl)ccc2OC(F)(F)F)c1)Nc1cncc2ccccc12 | 2.12 µM
O=C(Nc1cncc2ccccc12)C1COCc2ccc(Cl)cc21 (configuration not stated) | 8.08 µM
O=C(Nc1cncc2ccccc12)C1COCc2c(Cl)cccc21 (configuration not stated) | 7.02 µM
O=C(c1cc(=O)[nH]c2ccccc12)N1CCN(c2ccccc2)CC1 | 27.5 µM
O=C(NCCc1ccccc1)[C@H]1CN(C(=O)CCl)CCN1S(=O)(=O)c1ccsc1 (stereo in doubt) | 2.43 µM
Cc1nn(C)c2nc(Cl)cc(NNC(=O)c3ccnc4[nH]nnc34)c12 | > 99.5 µM
O=C(Cc1cc(Cl)cc(NC[C@@H](c2cccnc2)N2CCOCC2)c1)Nc1cncc2ccccc12 (stereo in doubt) | 2.58 µM
COc1ccc(-c2cc(N)n(-c3cc(Cl)cc(CC(=O)Nc4cncc5ccccc45)c3)n2)cc1 | 2.71 µM
NS(=O)(=O)c1n[nH]cc1C(=O)NC[C@@]1(C(=O)Nc2cncc3ccccc23)CCOc2ccc(Cl)cc21 (stereo in doubt) | 1.99 µM
COc1ccc(CNc2cc(Cl)cc(CC(=O)Nc3cncc4ccccc34)c2)c(OC)c1 | 3.37 µM
Cc1ccc2nc(Nc3cc(Cl)cc(CC(=O)Nc4cncc5ccccc45)c3)sc2c1 | 22.9 µM
CC(C)(C)c1ccc(N(C(=O)c2cc(CO)n[nH]2)C(C(=O)NCCc2cccc(F)c2)c2cccnc2)cc1 (configuration not stated) | 18.8 µM
O=C(Nc1cncc2ccccc12)C1CN(S(=O)(=O)CC2CC2(F)F)Cc2ccc(Cl)cc21 (configuration not stated) | 0.159 µM
COC(=O)CN1Cc2ccc(Cl)cc2C(C(=O)Nc2cncc3ccccc23)C1 (configuration not stated) | 1.55 µM
Cn1c(=O)[nH]c(=O)c2ccc(C(=O)N(c3ccc(C(C)(C)C)cc3)C(C(=O)NCCc3cccc(F)c3)c3cccnc3)nc21 (configuration not stated) | > 99.5 µM
C[C@H]1CN(c2cc(Cl)cc(CC(=O)Nc3cncc4ccccc34)c2)CCN1C(=O)OC(C)(C)C (stereo in doubt) | 2.61 µM
CC(C)(C)c1ccc(N(C(=O)c2c[nH]nn2)C(C(=O)NCCc2cccc(F)c2)c2cccnc2)cc1 (configuration not stated) | 1.17 µM
Cn1cc(CN2Cc3ccc(Cl)cc3C(C(=O)Nc3cncc4ccc(F)cc34)C2)nn1 (configuration not stated) | 0.914 µM
O=C(Nc1cncc2cc(CN3CCNCC3)ccc12)C1CCOc2ccc(Cl)cc21 (configuration not stated) | 1.83 µM

Structure (SMILES) | IC50
O=C(Cc1cc(Cl)cc(Nc2ccc(Br)c(Cl)c2Cl)c1)Nc1cncc2ccccc12 | 2.41 µM
CC(C)(C)c1ccc(N(C(=O)c2cocn2)C(C(=O)NCCc2cccc(F)c2)c2cncnc2)cc1 (configuration not stated) | 2.92 µM
Cc1ccncc1NC(=O)C(C)(C)c1cccc(Cl)c1 | 95.8 µM and 98.1 µM
O=C(Nc1cncc2ccccc12)C1CN(S(=O)(=O)[C@@H]2CCC[C@H]2O)Cc2ccc(Cl)cc21 (stereo in doubt) | 0.129 µM and 0.146 µM
N#Cc1cccc(NC(=O)Nc2cncc(N)c2)c1 | 54.3 µM
COC(=O)C(C)NC(=O)C(c1cccnc1)N(C(=O)c1cocn1)c1ccc(C(C)(C)C)cc1 (configuration not stated) | 7.18 µM
CC(C(N)=O)c1cc(Cl)cc(CC(=O)Nc2cncc3ccccc23)c1 (configuration not stated) | 2.62 µM
O=C(Cc1cccc(Cl)c1)Nc1cnccc1C(F)(F)F | 18.2 µM and > 9.95 µM
O=C(Cc1cc(Cl)cc(Nc2ccc(F)cc2Br)c1)Nc1cncc2ccccc12 | 2.04 µM
C=CC(=O)N(c1ccc(C(C)(C)C)cc1)C(C(=O)NCc1cccnc1)c1cccnc1 (configuration not stated) | 49.9 µM
Cc1ccncc1NC(=O)CCc1cccc(Cl)c1 | > 99.5 µM
CC(C)(C)c1ccc(N(C(=O)c2cc(=O)c3c(O)cccc3o2)C(C(=O)NCCc2cccc(F)c2)c2cccnc2)cc1 (configuration not stated) | > 99.5 µM
Cc1cc(C)nc(NC2CCN(C(=O)CCl)CC2)n1 | 27.6 µM
O=C(NCCc1cccc(F)c1)C(c1cccnc1)N(Cc1cccnc1)C(=O)c1cnc[nH]1 (configuration not stated) | > 99 µM
COCc1nc(C)c(C(=O)N(c2ccc(C(C)(C)C)cc2)C(C(=O)NCCc2cccc(F)c2)c2cccnc2)s1 (configuration not stated) | > 99.5 µM
CC(=O)N(CC(=O)Nc1ccc(F)c(Cl)c1)c1cccc(C(F)(F)F)c1 | > 99.5 µM
Cn1cc(C(=O)N(c2ccc(C(C)(C)C)cc2)C(C(=O)NCCc2cccc(F)c2)c2cccnc2)ncc1=O (configuration not stated) | > 99.5 µM
O=C(Cc1cc(Cl)cc(Nc2cc(Cl)c(F)c(Cl)c2)c1)Nc1cncc2ccccc12 | 1.85 µM
C[C@H](Nc1cc(Cl)cc(CC(=O)Nc2cncc3ccccc23)c1)c1ccc(Br)cc1 (stereo in doubt) | 3.77 µM
COc1ccc(CC(=O)Nc2cncc3ccccc23)cc1 | 72.5 µM
O=C(NNc1cc(O)nc2ncccc12)c1ccc2[nH]ccc2c1 | > 99.5 µM
CC(C)(C)c1ccc(N(C(=O)c2cnc(C(C)(C)CF)o2)C(C(=O)NCCc2cccc(F)c2)c2cccnc2)cc1 (configuration not stated) | > 99.5 µM
O=C1NCC(C(=O)Nc2cnn3c2CCCC3)c2cc(Cl)ccc21 (configuration not stated) | 30.5 µM

Structure (SMILES) | IC50
CC(C)(C)OC(=O)NCCNC(=O)C(c1cccnc1)N(C(=O)c1cocn1)c1ccc(C(C)(C)C)cc1 (configuration not stated) | 6.26 µM
Cc1cc(N)ncc1NC(=O)C1CCOc2ccc(Cl)cc21 (configuration not stated) | > 99.5 µM
CSCCNC(=O)C(c1cccnc1)N(C(=O)c1cocn1)c1ccc(C(C)(C)C)cc1 (configuration not stated) | 2.45 µM
CC(NC(=O)c1nccc2cccnc12)c1ccc2[nH]c(=O)oc2c1 (configuration not stated) | > 99.5 µM
O=C(Cc1cc(Cl)cc(N2CCN(c3ccccc3O)CC2)c1)Nc1cncc2ccccc12 | 1.85 µM
COCCCNC(=O)C(c1cccnc1)N(C(=O)c1cocn1)c1ccc(C(C)(C)C)cc1 (configuration not stated) | 8.79 µM
O=C(Cc1cc(Cl)cc(Nc2cccc(C(F)(F)F)c2F)c1)Nc1cncc2ccccc12 | 1.84 µM
Nc1nc2[nH]cnc2c(=O)n1-c1cc(Cl)cc(CC(=O)Nc2cncc3ccccc23)c1 | 1.86 µM
CNC(=O)CN1CC(C(=O)Nc2cncc3cc(NS(C)(=O)=O)ccc23)c2cc(Cl)ccc2C1=O (configuration not stated) | < 0.05 µM and 0.0442 µM
O=C(Nc1ccc2nncn2c1)c1ccc2scnc2c1 | > 99.5 µM
C=CC(=O)N(c1ccc(C(F)(F)F)cc1)C(C(=O)NCCc1cccc(F)c1)c1cncc(C#N)c1 (configuration not stated) | 11.1 µM
O=C(Cc1cc(Cl)cc(Nc2ccc(N3CCOCC3=O)cc2)c1)Nc1cncc2ccccc12 | 1.99 µM
O=C(Cc1cc(Cl)cc(Nc2nc3cc(Cl)ccc3s2)c1)Nc1cncc2ccccc12 | 2.04 µM
CC(C)(C)c1ccc(N(C(=O)c2ccn[nH]2)C(C(=O)NCCc2cccc(F)c2)c2cccnc2)cc1 (configuration not stated) | 1.78 µM
COC(=O)[C@H]1CC[C@@H](CNC(C(=O)Nc2cncc3ccccc23)c2cccc(Cl)c2)O1 (stereo in doubt) | 1.72 µM
CCn1c2ccccc2c2cc(Nc3cc(Cl)cc(CC(=O)Nc4cncc5ccccc45)c3)ccc21 | 2.73 µM
COc1ccc2c(NC(=O)C3CCOc4ccc(Cl)cc43)noc2c1 (configuration not stated) | 61.5 µM
O=C(CCl)N1CCCc2cc(NCc3ccc(F)cc3Cl)ccc21 | 19.3 µM
O=C(Nc1cncc2ccccc12)C1CCCc2ccc(Cl)cc21 (configuration not stated) | 0.324 µM
O=C(NCCc1cccc(F)c1)C(c1cccnc1)N(C(=O)c1cocn1)c1ccc(OC2CCOC2)cc1 (configuration not stated) | 6.32 µM
N#CC1(CS(=O)(=O)N2Cc3ccc(Cl)cc3C3(CCN(c4cncc5cc(F)cc(Cl)c45)C3=O)C2)CC1 (configuration not stated) | 23.8 µM
COc1ccccc1OC1CCN(C(=O)c2cc(=O)[nH]c3ccccc23)C1 (configuration not stated) | > 99.5 µM
Cc1nc(C(=O)N(c2ccc(C(C)(C)C)cc2)C(C(=O)NCCc2cccc(F)c2)c2cccnc2)nn1-c1nnc[nH]1 (configuration not stated) | > 99.5 µM

Structure (SMILES) | IC50
CNC(=O)CN1Cc2ccc(Cl)cc2C2(CCN(c3cncc4ccc(OCCN(C)C)cc34)C2=O)C1 (configuration not stated) | 0.21 µM
CC(C)(O)c1ccc2cncc(NC(=O)C3CN(S(=O)(=O)CC4(C#N)CC4)Cc4ccc(Cl)cc43)c2c1 (configuration not stated) | 1.14 µM
O=C(Cc1cc(Cl)cc(NCc2ccc(Br)cc2F)c1)Nc1cncc2ccccc12 | 3.49 µM
CCCc1nn(C)c(C(=O)Nc2cc(Cl)cc(CC(=O)Nc3cncc4ccccc34)c2)c1N | 7.35 µM
O=C(Cc1cc(Cl)cc(Nc2ccccc2)c1)Nc1cncc2ccccc12 | > 9.95 µM
COc1cccc2ncc(NC(=O)Cc3cccc(Cl)c3)n12 | > 99.5 µM
N#CCCN1CCN(C(=O)CC2(C(=O)Nc3cncc4ccccc34)CCOc3ccc(Cl)cc32)CC1 (configuration not stated) | 21.3 µM
O=C(Nc1cncc2ccccc12)[C@H]1CN(S(=O)(=O)CC2CS(=O)(=O)C2)Cc2ccc(Cl)cc21 (stereo in doubt) | 0.0505 µM and 0.108 µM and 0.0737 µM
COc1cc(Nc2cc(Cl)cc(CC(=O)Nc3cncc4ccccc34)c2)ccc1Br | 1.89 µM
O=C(NNC(=O)c1cccc(-n2nccc2C(F)(F)F)c1)OCc1ccccc1 | > 99.5 µM
O=C(Cc1cc(Cl)cc(Nc2n[nH]c3ccc(Br)cc23)c1)Nc1cncc2ccccc12 | 1.83 µM
O=C(Cc1cc(Cl)cc(Nc2nnc(-c3ccncc3)s2)c1)Nc1cncc2ccccc12 | 2.19 µM
O=C(Nc1cccc(C(F)(F)F)c1)Nc1ccccc1Sc1ncc([N+](=O)[O-])s1 | 6.26 µM
O=C(Cc1cc(Cl)cc(NC23CC4CC(CC(O)(C4)C2)C3)c1)Nc1cncc2ccccc12 | 2.87 µM
CC(C)(C)c1ccc(N(C(=O)c2nnc(S)[nH]c2=O)C(C(=O)NCCc2cccc(F)c2)c2cccnc2)cc1 (configuration not stated) | > 99.5 µM
COc1cc(Cl)nc(Nc2cc(Cl)cc(CC(=O)Nc3cncc4ccccc34)c2)n1 | 0.504 µM
O=C(CCl)N1CCC(c2nc(-c3cccnc3)nc3ccccc23)CC1 | 18.2 µM
O=C(Cc1cc(Cl)cc(Nc2cnc(Br)cn2)c1)Nc1cncc2ccccc12 | 2.07 µM
O=C(c1cc(=O)cc[nH]1)N1CCN(c2cccc(Cl)c2)CC1 | > 99.5 µM
Cn1cc(-c2cc(C(=O)N(c3ccc(C(C)(C)C)cc3)C(C(=O)NCCc3cccc(F)c3)c3cccnc3)on2)cn1 (configuration not stated) | > 99.5 µM
CC(C)=CCC[C@@](C)(O)[C@H]1CC[C@]2(C)[C@@H]1[C@H](O)C[C@@H]1[C@@]3(C)CC[C@H](O[C@@H]4O[C@H](CO)[C@@H](O)[C@H](O)[C@H]4O)C(C)(C)[C@@H]3CC[C@]12C (stereo in doubt) | > 99.5 µM
C=CC(=O)N(Cc1ccccc1Cl)C(C(=O)NC)c1cccnc1 (configuration not stated) | > 99.5 µM
CCOC(=O)c1cccc(NC(=O)[C@@H]2CN(C(=O)CCl)CCN2S(=O)(=O)c2ccsc2)c1 (stereo in doubt) | 0.459 µM
